One series has as its target T1, cyclooxygenase-2 (Mus musculus, UniProt Q05769).
T1 sequence (Q05769 18-604): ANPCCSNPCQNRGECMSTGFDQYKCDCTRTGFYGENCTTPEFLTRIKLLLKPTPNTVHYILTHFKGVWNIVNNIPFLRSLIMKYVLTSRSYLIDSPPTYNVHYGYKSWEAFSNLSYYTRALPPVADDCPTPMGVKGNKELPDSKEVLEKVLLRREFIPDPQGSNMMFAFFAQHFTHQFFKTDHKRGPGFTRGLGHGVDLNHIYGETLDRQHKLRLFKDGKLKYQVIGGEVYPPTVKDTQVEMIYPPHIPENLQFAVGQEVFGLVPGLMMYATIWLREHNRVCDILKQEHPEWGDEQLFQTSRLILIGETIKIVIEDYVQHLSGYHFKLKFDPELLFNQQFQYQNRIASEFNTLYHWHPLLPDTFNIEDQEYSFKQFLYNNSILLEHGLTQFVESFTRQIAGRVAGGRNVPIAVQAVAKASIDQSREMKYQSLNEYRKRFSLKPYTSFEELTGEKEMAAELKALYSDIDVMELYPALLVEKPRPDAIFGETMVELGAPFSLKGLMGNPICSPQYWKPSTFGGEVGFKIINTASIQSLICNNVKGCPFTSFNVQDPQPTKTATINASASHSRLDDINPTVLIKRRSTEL
The experiment in a line: Cell-based assay for cyclooxygenase-2 inhibition (PGE2 ELISA, LPS-treated RAW264.7 macrophages). As to conditions: lipopolysaccharide-treated murine RAW264.7 macrophages.

For one molecule, melting point and IC50 results are on record in patent US7329401B2, “Cyclooxygenase-2 selective agents useful as imaging probes and related methods” (The Regents of the University of California, priority 2002, dated 2008).

Protocol for cyclooxygenase-2: RAW 264.7 cells are a murine macrophage cell line that can be induced to express cyclooxygenase-2 by exposure to bacterial endotoxin/lipopolysaccharide (LPS). For this assay, RAW964.7 cells were plated at 90% confluence in 12-well cell culture plates. After attachment, cells were switched to 1 mL of endotoxin-free Dulbecco's Modified Eagle's Medium with high glucose and 0.5% calf serum overnight. Thirty minutes prior to induction of cyclooxygenase-2 expression, varying concentrations of the test compound (ranging from 20 nM to 0.3 nM) were added. NS-398 (a known cyclooxygenase-2 inhibitor) was used at 10 μM, as a control. Inhibitors or vehicle were added to the cultures by removing the existing culture medium and adding fresh medium containing inhibitor or vehicle. Cells were treated with LPS (final concentration, 10 ng per mL) to induce cyclooxygenase-2 expression. After eight hours, the media were collected from the cultures and frozen on dry ice. Cells were harvested and lysed. Protein determinations were performed to normalize PGE2 values to total protein in each well. PGE2 ELISA assays were performed with a commercial kit (Amersham).
The assay was carried out using lipopolysaccharide-treated murine RAW264.7 macrophages as described previously.

As for `Cc1onc(-c2ccccc2)c1-c1ccc(S(N)(=O)=O)c(F)c1` [compound 4, 2-Fluoro-4-(5-methyl-3-phenylisoxazol-4-yl)benzenesulfonamide], the melting point was 192 to 195 °C (dec.). For the same molecule, at cyclooxygenase-2, the IC50 lay in the range of 1.25 to 2.5 nM.
